According to patent US9682988B2, “Solid salt form of α-6-mPEG6-O-hydroxycodone as opioid agonists and uses thereof” (Nektar Therapeutics, priority 2012, dated 2017):

Legend:
Assay type in all cases: physicochemical
Water vapor sorption = settings: phosphate salt
Experimental: Moisture sorption/desorption data were collected on a VTI SGA-1 00 Vapor Sorption Analyzer. Sorption and desorption data were collected over a range of 5% to 95% relative humidity (RH) at 10% RH intervals under a nitrogen purge. Samples were not dried prior to analysis. Equilibrium criteria used for analysis were less than 0.0100% weight change in 5 minutes, with a maximum equilibration time of 3 hours if the weight criterion was not met. Data were not corrected for the initial moisture content of the samples. NaCl and PVP were used as calibration standards.

[1] = Bulk and tap density of the solid salt
Experimental: (§1) 27.22 g of freebase alpha-6-mPEG6-O-hydroxycodone was added to a 250 mL jacketed flask. The flask was equipped with a nitrogen inlet, mechanical stirrer and temperature probe connected to a digital read-out. 163 mL of tBME (methyl tert-butyl ether):heptane (5:1 vol:vol) was added to make a homogeneous solution at 15° C. Aqueous phosphoric acid (3103 μL of 85+%) was added over 1 hr at 10 minutes intervals. During the first addition, the initially formed solids were long strings and agitation helped to transform fine solid in matter of seconds. Exothermic temperature spikes occurred; the range of these increases was 8-10° C. observed during the initial 5 added portions. During the 6th and 7th added portion the temperature spike was reduced substantially to increments of a Celsius degree. After 2 hours the slurry was filtered. The filtration rate was instantaneous with no solvent retention. The wet cake was washed with 90 mL tBME (2×45 mL) and set to dry at ambient temperature overnight inside a vacuum oven. The isolated 30.57 g of white solid (96.5% isolated yield) was filtered. The solid after delumping with spatula was free flowing. The % LOD of the wet cake was at 43.2%. HPLC purity was at 98.6%. Bulk density was 0.3276 g/mL, tap density was 0.3931 g/mL, and the Hausner ratio was 1.20. XRPD conformed to the salt prepared according to Example 3. FIG. 16 depicts various XRPD scans for the salt prepared according to Example 7 on a 30 g, 100 g, and 520 g scale and a salt prepared according to Example 3 on a 100 g scale. XRPD patterns were obtained using a Bruker D8 Advance equipped with a Cu Kα radiation source (1.54 Å), a 9-position sample holder and a LYNXEYE Super Speed Detector. Typically, the duration of each scan was 180 seconds and the 2θ range was 4 to 40°. Samples were placed on zero-background, silicon plate holders. DSC data were collected using a TA Instruments Q10 DSC. Typically, samples (˜2 mg) were placed in hermetic alodined aluminum sample pans and scanned from 30 to 350° C. at a rate of 10° C./min under a nitrogen purge of 50 mL/min. A Malvern Hydro 2000 SM (A) Mastersizer was used for particle size analysis data using a generic method. Ethyl acetate was used as the dispersant, with a pump speed of 2000 rpm, obstruction of 10-15%. The addition style included direct addition of the solid to the dispersant until desired obstruction is achieved. The number of measurements was a minimum of two. For PSD analysis, a sample was taken from the bulk of the solid. FIGS. 13, 14, and 15 are plots of the PSD analysis for the 30 g, 100 g, and 520 g lots respectively.

[2] = Particle size distribution (Malvern Mastersizer); settings: ethyl acetate dispersant; phosphate salt
Experimental: as §1

[3] = Description of the isolated solid (hygroscopicity); settings: after drying under vacuum at ambient temperature
Experimental: A solution of α-6-mPEG6-O-hydroxycodone was prepared in a mixture of methanol and tert-butyl methyl ether (2:1, 2 volumes) at 30° C. A solution of phosphoric acid (85% aqueous, 1.05 eq) was prepared in a mixture of methanol and tert-butyl methyl ether (2:1, 1.2 volumes) at 20° C. The solutions were combined, maintaining a temperature of 30-50° C., resulting in the formation of dissolved α-6-mPEG6-O-hydroxycodone phosphate. This salt solution was adjusted to 40° C., and gradually transferred over the course of 1-3 hours into a solution of heptanes and tert-butyl methyl ether (4:1, 14 volumes) maintained at 45° C. During the transfer, α-6-mPEG6-O-hydroxycodone phosphate precipitated from the combined streams. The resulting slurry was cooled to 20° C. and agitation was ceased, permitting the solids to settle. The supernate was decanted, and heptanes (6 volumes) were added to the solids. The solids were slurried for at least one hour at 30° C., after which the slurry was cooled to 20° C. Again agitation was ceased, the solids were allowed to settle, and the supernate was decanted. Fresh heptanes were added to the solids, which were again slurried for at least one hour at 30° C. The slurry was cooled to 20° C., filtered, and washed with fresh heptanes (2 volumes). […] The solid form prepared according to this Example has a melting point in the range of about 175-177° C. […]

[4] = listed as Alpha 6-mPEG6-O-Hydroxycodone Phosphate Salt

## COCCOCCOCCOCCOCCOCCO[C@H]1CC[C@@]2(O)[C@H]3Cc4ccc(OC)c5c4[C@@]2(CCN3C)[C@H]1O5.O=P(O)(O)O [30 g Lot, α-6-mPEG6-O-hydroxycodone phosphate salt]
Water vapor sorption
  Water Vapor Sorption (gain between 0-50% RH): 4.2%
[1]; phosphate salt
  Bulk Density: 0.33 g/mL
  Hausner ratio: 1.18
  Tap Density: 0.39 g/mL
[2]
  Particle Size Distribution DV[10]: DV[10] = 7 μm
  Particle Size Distribution DV[50]: DV[50] = 47 μm
  Particle Size Distribution DV[90]: DV[90] = 92 μm

## COCCOCCOCCOCCOCCOCCO[C@H]1CC[C@@]2(O)[C@H]3Cc4ccc(OC)c5c4[C@@]2(CCN3C)[C@H]1O5.O=P(O)(O)O [100 g Lot, α-6-mPEG6-O-hydroxycodone phosphate salt]
Water vapor sorption
  Water Vapor Sorption (gain between 0-50% RH): 4.1%
[1]; phosphate salt
  Bulk Density: 0.37 g/mL
  Hausner ratio: 1.30
  Tap Density: 0.48 g/mL
[2]
  Particle Size Distribution DV[10]: DV[10] = 9 μm
  Particle Size Distribution DV[50]: DV[50] = 53 μm
  Particle Size Distribution DV[90]: DV[90] = 109 μm

## COCCOCCOCCOCCOCCOCCO[C@H]1CC[C@@]2(O)[C@H]3Cc4ccc(OC)c5c4[C@@]2(CCN3C)[C@H]1O5.O=P(O)(O)O [520 g Lot, α-6-mPEG6-O-hydroxycodone phosphate salt]
Water vapor sorption
  Water Vapor Sorption (gain between 0-50% RH): 4.2%
[1]; phosphate salt
  Bulk Density: 0.39 g/mL
  Hausner ratio: 1.25
  Tap Density: 0.49 g/mL
[2]
  Particle Size Distribution DV[10]: DV[10] = 7 μm
  Particle Size Distribution DV[50]: DV[50] = 47 μm
  Particle Size Distribution DV[90]: DV[90] = 93 μm

## COCCOCCOCCOCCOCCOCCO[C@H]1CC[C@@]2(O)[C@H]3Cc4ccc(OC)c5c4[C@@]2(CCN3C)[C@H]1O5.O=C(O)C(O)C(O)C(=O)O [α-6-mPEG6-O-hydroxycodone D-tartrate]
[3]
  nature of the isolated solid: deliquescent white powder

## COCCOCCOCCOCCOCCOCCO[C@H]1CC[C@@]2(O)[C@H]3Cc4ccc(OC)c5c4[C@@]2(CCN3C)[C@H]1O5.O=P(O)(O)O [α-6-mPEG6-O-hydroxycodone phosphate]
[3]
  nature of the isolated solid: slightly waxy, hygroscopic powder
[1]; [4]
  Bulk Density: 0.3276 g/mL
  Hausner ratio: 1.20
  Tap Density: 0.3931 g/mL
